Source: PubChem BioAssay (NCI)
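Interpolation was linear, between the two tested concentrations surrounding the appropriate level; five concentrations were tested over 48 hours in 96-well plates. TGI: total growth inhibition.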

Key:
Assay in all cases: inhibition of tumour cell growth, NCI panel, 48 h
[1] = test system: SF-268 CNS
[2] = test system: IGROV1 ovarian
[3] = test system: SNB-78 CNS
[4] = test system: OVCAR-8 ovarian
[5] = test system: OVCAR-4 ovarian
[6] = test system: EKVX NSCLC
[7] = test system: DMS 114 small cell lung
[8] = test system: HL-60(TB) leukemia
[9] = test system: U251 CNS
[10] = test system: HCT-15 colon
[11] = test system: NCI-H460 lung
[12] = test system: RPMI-8226 leukemia
[13] = test system: M19-MEL melanoma
[14] = test system: SW-620 colon
[15] = test system: UACC-62 melanoma
[16] = test system: SK-MEL-2 melanoma
[17] = test system: SF-539 CNS
[18] = test system: CCRF-CEM leukemia
[19] = test system: SNB-19 CNS
[20] = test system: KM12 colon
[21] = test system: NCI-H23 lung
[22] = test system: KM20L2 colon
[23] = test system: M14 melanoma
[24] = test system: OVCAR-5 ovarian
[25] = test system: TK-10 renal
[26] = test system: A549 NSCLC
[27] = test system: RXF 393 renal
[28] = test system: ACHN renal
[29] = test system: SN12C renal
[30] = test system: SK-MEL-5 melanoma
[31] = test system: SK-MEL-28 melanoma
[32] = test system: K-562 leukemia
[33] = test system: HCC-2998 colon
[34] = test system: OVCAR-3 ovarian
[35] = test system: UACC-257 melanoma
[36] = test system: DMS 273 small cell lung
[37] = test system: HCT-116 colon
[38] = test system: LOX IMVI melanoma
[39] = test system: COLO 205 colon
[40] = test system: SNB-75 CNS
[41] = test system: HOP-18 NSCLC
[42] = test system: LXFL 529 NSCLC
[43] = test system: SR leukemia
[44] = test system: HOP-92 NSCLC
[45] = test system: UO-31 renal
[46] = test system: HOP-62 NSCLC
[47] = test system: MOLT-4 leukemia
[48] = test system: HT29 colon

Measured: TGI

CCNC(=S)NNC(=O)c1nsc2ccccc12
> 100 µM: [1] | [2] | [3] | [4] | [5] | [6] | [7] | [8] | [9] | [10] | [11] | [12] | [13] | [14] | [15] | [16] | [17] | [18] | [19] | [20] | [21] | [22] | [23] | [24] | [25] | [26] | [27] | [28] | [29] | [30] | [31] | [32] | [33] | [34] | [35] | [36] | [37] | [38] | [39] | [40] | [41] | [42] | [43] | [44] | [45] | [46] | [47] | [48]
